Measurements taken from patent US20260000692A1, “Substituted N-(Pyridin-2-yl)Acetamide Derivatives as CDK12/13 Inhibitors” (Aurigene Oncology Limited, priority 2022, published 2026).

Target: CDK12 (Homo sapiens, UniProt Q9NYV4)
Assay: Biochemical assay for CDK12 (LANCE TR-FRET, IC50 determination)
Details: for IC50: CDK12, IC50 class, read-out: IC50 μM (in range); for CDK12 % Inhibition @ 10 μM / inhibition at 10 µM: compound at 10 μM; for inhibition at 10 µM: read-out: CDK12 % Inhibition @ 10 μM
Experimental: Biochemical Assay for CDK12 (IC50 Determination):
The inhibitory activity of the test compounds was assessed by the LANCE TR-FRET assay, which detects the ATP-dependent phosphorylation of an ULight-4E-BP1 (Thr37/Thr46) substrate peptide (100 nM) by CDK12 (30 nM). Briefly, the enzyme reaction was run in reaction buffer (25 mM HEPES (pH 7.5), 10 mM MgCl2, […], 0.01% Triton x, 1 mM DTT). The assay was performed in 384-well plate format. The end concentration of the ATP substrate was […], and that of the ULight-4E-BP1 (Thr37/Thr46) substrate peptide was 100 nM, and of CDK12 was 30 nM. Pre-incubation of the compound and enzyme was performed for 60 min at room temperature. After 60 min incubation at room temperature, the reaction was terminated by the addition of 40 mM EDTA and 0.5 nM Eu-labeled anti-phospho-eIF4E-binding protein (Thr37/46) antibody in LANCE detection buffer. Time-resolved fluorescence (excitation, 320 nm; emission donor, 615 nm; emission acceptor, 665 nm) was monitored by using 2030 multilabel reader Victor5 (PerkinElmer). The Fluorescence emission of the samples were measured and the ratio was plotted against the compound concentration to generate the dose response curve. The IC50 values were derived by fitting a sigmoidal dose-response curve to a plot of assay readout over inhibitor concentration. All fits were computed with the program Prism 5.03 (Graph Pad Software, San Diego, CA). The % inhibition values at […] were calculated with respect to enzyme activity.

CDK12, sequence (Q9NYV4 whole entry): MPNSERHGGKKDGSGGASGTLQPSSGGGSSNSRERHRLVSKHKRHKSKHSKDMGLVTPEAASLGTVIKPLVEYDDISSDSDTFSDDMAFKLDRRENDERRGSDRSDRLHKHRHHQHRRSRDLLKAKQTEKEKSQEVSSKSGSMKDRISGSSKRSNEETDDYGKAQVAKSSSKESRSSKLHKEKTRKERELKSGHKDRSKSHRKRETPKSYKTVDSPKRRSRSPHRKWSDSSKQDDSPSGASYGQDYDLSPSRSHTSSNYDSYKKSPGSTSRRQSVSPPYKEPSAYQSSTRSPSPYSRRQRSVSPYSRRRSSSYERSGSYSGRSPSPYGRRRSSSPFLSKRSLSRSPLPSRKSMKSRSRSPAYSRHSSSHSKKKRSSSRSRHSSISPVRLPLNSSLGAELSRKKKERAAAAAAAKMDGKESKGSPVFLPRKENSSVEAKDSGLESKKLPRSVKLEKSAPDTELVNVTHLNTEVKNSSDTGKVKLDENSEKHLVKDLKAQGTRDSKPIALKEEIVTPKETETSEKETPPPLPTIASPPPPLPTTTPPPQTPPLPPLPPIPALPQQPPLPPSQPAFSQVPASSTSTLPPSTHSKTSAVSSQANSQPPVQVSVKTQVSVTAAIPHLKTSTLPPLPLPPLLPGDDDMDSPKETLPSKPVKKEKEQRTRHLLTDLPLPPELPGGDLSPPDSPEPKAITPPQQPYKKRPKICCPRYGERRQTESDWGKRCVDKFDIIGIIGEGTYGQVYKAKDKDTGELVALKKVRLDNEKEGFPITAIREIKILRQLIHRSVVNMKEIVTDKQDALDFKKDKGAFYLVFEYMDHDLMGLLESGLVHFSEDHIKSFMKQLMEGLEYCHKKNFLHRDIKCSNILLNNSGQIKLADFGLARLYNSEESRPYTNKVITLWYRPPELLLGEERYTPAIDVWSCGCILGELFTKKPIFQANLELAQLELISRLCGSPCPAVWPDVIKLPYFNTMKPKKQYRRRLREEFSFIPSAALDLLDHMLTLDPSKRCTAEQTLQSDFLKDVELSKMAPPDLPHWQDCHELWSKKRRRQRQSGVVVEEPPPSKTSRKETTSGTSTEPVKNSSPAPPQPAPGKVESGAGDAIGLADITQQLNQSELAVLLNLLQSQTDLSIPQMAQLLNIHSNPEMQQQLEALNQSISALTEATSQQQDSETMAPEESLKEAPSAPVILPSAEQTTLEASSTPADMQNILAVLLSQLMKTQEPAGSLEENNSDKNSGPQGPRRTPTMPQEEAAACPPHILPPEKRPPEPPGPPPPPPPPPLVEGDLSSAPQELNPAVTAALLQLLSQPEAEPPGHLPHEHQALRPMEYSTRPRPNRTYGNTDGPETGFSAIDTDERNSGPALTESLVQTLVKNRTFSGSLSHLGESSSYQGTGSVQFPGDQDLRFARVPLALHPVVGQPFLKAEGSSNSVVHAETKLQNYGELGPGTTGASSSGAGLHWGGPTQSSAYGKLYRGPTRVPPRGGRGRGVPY
CDK12, sequence (O75909 whole entry partner): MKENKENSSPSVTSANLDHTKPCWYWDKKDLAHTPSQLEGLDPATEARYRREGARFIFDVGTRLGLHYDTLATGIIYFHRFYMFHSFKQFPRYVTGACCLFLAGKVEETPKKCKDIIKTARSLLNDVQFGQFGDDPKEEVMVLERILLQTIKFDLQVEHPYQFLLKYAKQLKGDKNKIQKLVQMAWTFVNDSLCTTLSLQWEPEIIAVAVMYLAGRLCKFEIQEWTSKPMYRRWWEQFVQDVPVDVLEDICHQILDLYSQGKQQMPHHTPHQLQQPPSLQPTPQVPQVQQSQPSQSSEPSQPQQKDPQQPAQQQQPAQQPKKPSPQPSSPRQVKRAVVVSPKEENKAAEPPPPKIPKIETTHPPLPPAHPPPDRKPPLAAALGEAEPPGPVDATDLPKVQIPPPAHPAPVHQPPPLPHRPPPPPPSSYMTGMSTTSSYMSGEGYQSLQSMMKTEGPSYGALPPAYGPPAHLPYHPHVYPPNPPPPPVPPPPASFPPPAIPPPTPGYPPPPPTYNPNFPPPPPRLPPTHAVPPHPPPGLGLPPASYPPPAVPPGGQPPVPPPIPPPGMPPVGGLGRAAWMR

Compound	IC50 [µM]	CDK12 % Inhibition @ 10 μM (10 µM) [%]	inhibition at 10 µM [%]	CDK12 % Inhibition @ 10 μM [%]
COc1cc(NC(=O)Cc2ccc(C3=CCN(C#N)C(C)C3)nc2)ncc1Cl (single isomer, unassigned) [Compound 67, N-(5-chloro-4-methoxypyridin-2-yl)-2-(1′-cyano-2′-methyl-1′,2′,3′,6′-tetrahydro-[2,4′-bipyridin]-5-yl)acetamide]	0.01 to 0.1	86	–	–
COc1cc(NC(=O)Cc2ccc(C3=CCN(C#N)C(C)C3)nc2)ncc1Cl (single isomer, unassigned) [Compound 68, N-(5-chloro-4-methoxypyridin-2-yl)-2-(1′-cyano-2′-methyl-1′,2′,3′,6′-tetrahydro-[2,4′-bipyridin]-5-yl)acetamide]	< 0.01	87	–	–
COc1cc(NC(=O)Cc2ccc(C3=CCN(C#N)CC3C)nc2)ncc1Cl (single isomer, unassigned) [Compound 71, N-(5-chloro-4-methoxypyridin-2-yl)-2-(1′-cyano-3′-methyl-1′,2′,3′,6′-tetrahydro-[2,4′-bipyridin]-5-yl)acetamide]	< 0.01	–	93	–
COc1cc(NC(=O)Cc2ccc(C3=CCN(C#N)CC3C)nc2)ncc1Cl (single isomer, unassigned) [Compound 72, N-(5-chloro-4-methoxypyridin-2-yl)-2-(1′-cyano-3′-methyl-1′,2′,3′,6′-tetrahydro-[2,4′-bipyridin]-5-yl)acetamide]	< 0.01	92	–	–
COc1cc(NC(=O)Cc2ccc(C3CCCN(C#N)C3)nc2)ncc1Cl (single isomer, unassigned) [Compound 79, N-(5-chloro-4-methoxypyridin-2-yl)-2-(6-(1-cyanopiperidin-3-yl)pyridin-3-yl)acetamide]	> 0.1	–	79	–
COc1cc(NC(=O)Cc2ccc(C3CCCN(C#N)C3)nc2)ncc1Cl (single isomer, unassigned) [Compound 80, N-(5-chloro-4-methoxypyridin-2-yl)-2-(6-(1-cyanopiperidin-3-yl)pyridin-3-yl)acetamide]	0.01 to 0.1	87	–	–
CNC(=O)C(C)Oc1cc(NC(=O)Cc2ccc(C3CCN(C#N)CC3)nc2)ncc1Cl (single isomer, unassigned) [Compound 83, 2-((5-chloro-2-(2-(6-(1-cyanopiperidin-4-yl)pyridin-3-yl)acetamido)pyridin-4-yl)oxy)-N-methylpropanamide]	0.01 to 0.1	–	84	–
CNC(=O)C(C)Oc1cc(NC(=O)Cc2ccc(C3CCN(C#N)CC3)nc2)ncc1Cl (single isomer, unassigned) [Compound 84, 2-((5-chloro-2-(2-(6-(1-cyanopiperidin-4-yl)pyridin-3-yl)acetamido)pyridin-4-yl)oxy)-N-methylpropanamide]	< 0.01	–	–	84
CNC(=O)C(C)Oc1cc(NC(=O)Cc2ccc(C3CCCN(C#N)C3)nc2)ncc1Cl (single isomer, unassigned) [Compound 86, 2-((5-chloro-2-(2-(6-(1-cyanopiperidin-3-yl)pyridin-3-yl)acetamido)pyridin-4-yl)oxy)-N-methylpropanamide]	> 0.1	–	84	–
CNC(=O)C(C)Oc1cc(NC(=O)Cc2ccc(C3CCCN(C#N)C3)nc2)ncc1Cl (single isomer, unassigned) [Compound 87, 2-((5-chloro-2-(2-(6-(1-cyanopiperidin-3-yl)pyridin-3-yl)acetamido)pyridin-4-yl)oxy)-N-methylpropanamide]	> 0.1	85	–	–
CNC(=O)C(C)Oc1cc(NC(=O)Cc2ccc(C3CCCN(C#N)C3)nc2)ncc1Cl (single isomer, unassigned) [Compound 88, 2-((5-chloro-2-(2-(6-(1-cyanopiperidin-3-yl)pyridin-3-yl)acetamido)pyridin-4-yl)oxy)-N-methylpropanamide]	> 0.1	79	–	–
CNC(=O)C(C)Oc1cc(NC(=O)Cc2ccc(C3CCCN(C#N)C3)nc2)ncc1Cl (single isomer, unassigned) [Compound 89, 2-((5-chloro-2-(2-(6-(1-cyanopiperidin-3-yl)pyridin-3-yl)acetamido)pyridin-4-yl)oxy)-N-methylpropanamide]	0.01 to 0.1	90	–	–
CNC(=O)C(C)Oc1cc(NC(=O)Cc2ccc(C3CCCN(C#N)C3)nc2)ncc1Cl (single isomer, unassigned) [Compound 90, 2-((5-chloro-2-(2-(6-(1-cyanopiperidin-3-yl)pyridin-3-yl)acetamido)pyridin-4-yl)oxy)-N-methylpropanamide]	0.01 to 0.1	93	–	–
CNC(=O)C(C)Oc1cc(NC(=O)Cc2ccc(C3CCCN(C#N)C3)nc2)ncc1Cl (single isomer, unassigned) [Compound 91, 2-((5-chloro-2-(2-(6-(1-cyanopiperidin-3-yl)pyridin-3-yl)acetamido)pyridin-4-yl)oxy)-N-methylpropanamide]	0.01 to 0.1	95	–	–
N#CN1CCCC(c2ccc(CC(=O)Nc3cc(O[C@@H]4CCOC4)c(Cl)cn3)cn2)C1 (single isomer, unassigned) [Compound 93]	0.01 to 0.1	–	73	–
N#CN1CCCC(c2ccc(CC(=O)Nc3cc(O[C@@H]4CCOC4)c(Cl)cn3)cn2)C1 (single isomer, unassigned) [Compound 94]	0.01 to 0.1	77	–	–
N#CN1CCCC(c2ccc(CC(=O)Nc3cc(O[C@H]4CCOC4)c(Cl)cn3)cn2)C1 (single isomer, unassigned) [Compound 96]	> 0.1	–	91	–
N#CN1CCCC(c2ccc(CC(=O)Nc3cc(O[C@H]4CCOC4)c(Cl)cn3)cn2)C1 (single isomer, unassigned) [Compound 97]	0.01 to 0.1	96	–	–
CN1CCC(Oc2cc(NC(=O)Cc3ccc(C4=CCN(C#N)CC4)nc3)ncc2Cl)C1 (stereo in doubt) [Compound 29, (R)-N-(5-chloro-4-((1-methylpyrrolidin-3-yl)oxy)pyridin-2-yl)-2-(1′-cyano-1′,2′,3′,6′-tetrahydro-[2,4′-bipyridin]-5-yl)acetamide]	0.01 to 0.1	–	86	–
CN1CCC(Oc2cc(NC(=O)Cc3ccc(C4=CCN(C#N)CC4)nc3)ncc2Cl)C1 (stereo in doubt) [Compound 30, (S)-N-(5-chloro-4-((1-methylpyrrolidin-3-yl)oxy)pyridin-2-yl)-2-(1′-cyano-1′,2′,3′,6′-tetrahydro-[2,4′-bipyridin]-5-yl)acetamide]	0.01 to 0.1	–	82	–
CNC(=O)C(C)Oc1cc(NC(=O)Cc2ccc(C3=CCN(C#N)CC3)nc2)ncc1Cl (stereo not shown) [Compound 1, 2-((5-chloro-2-(2-(1′-cyano-1′,2′,3′,6′-tetrahydro-[2,4′-bipyridin]-5-yl)acetamido)pyridin-4-yl)oxy)-N-methylpropanamide]	< 0.01	–	92	–
N#CN1CC=C(c2ccc(CC(=O)Nc3ccc(Cl)cn3)cn2)CC1 [Compound 4, N-(5-chloropyridin-2-yl)-2-(1′-cyano-1′,2′,3′,6′-tetrahydro-[2,4′-bipyridin]-5-yl)acetamide]	0.01 to 0.1	–	75	–
N#CN1CCC=C(c2ccc(CC(=O)Nc3ccc(Cl)cn3)cn2)C1 [Compound 5, N-(5-chloropyridin-2-yl)-2-(1′-cyano-1′,2′,5′,6′-tetrahydro-[2,3′-bipyridin]-5-yl)acetamide]	0.01 to 0.1	–	75	–
N#CN1CC=C(c2ccc(CC(=O)Nc3ccc(Cl)cn3)cn2)C1 [Compound 6, N-(5-chloropyridin-2-yl)-2-(6-(1-cyano-2,5-dihydro-1H-pyrrol-3-yl)pyridin-3-yl)acetamide]	< 0.01	–	78	–
N#CN1CC=C(c2ccc(CC(=O)Nc3cc(N4CCOCC4)c(Cl)cn3)cn2)CC1 [Compound 7, N-(5-chloro-4-morpholinopyridin-2-yl)-2-(1′-cyano-1′,2′,3′,6′-tetrahydro-[2,4′-bipyridin]-5-yl)acetamide]	0.01 to 0.1	–	88	–
COc1cc(NC(=O)Cc2ccc(C3=CCN(C#N)CC3)nc2)ncc1Cl [Compound 8, N-(5-chloro-4-methoxypyridin-2-yl)-2-(1′-cyano-1′,2′,3′,6′-tetrahydro-[2,4′-bipyridin]-5-yl)acetamide]	< 0.01	–	82	–
CN1CCN(c2cc(NC(=O)Cc3ccc(C4=CCN(C#N)CC4)nc3)ncc2Cl)CC1 [Compound 9, N-(5-chloro-4-(4-methylpiperazin-1-yl)pyridin-2-yl)-2-(1′-cyano-1′,2′,3′,6′-tetrahydro-[2,4′-bipyridin]-5-yl)acetamide]	–	–	64	–
CN1CCC(Oc2cc(NC(=O)Cc3ccc(C4=CCN(C#N)CC4)nc3)ncc2Cl)C1 (stereo not shown) [Compound 10, N-(5-chloro-4-((1-methylpyrrolidin-3-yl)oxy)pyridin-2-yl)-2-(1′-cyano-1′,2′,3′,6′-tetrahydro-[2,4′-bipyridin]-5-yl)acetamide]	< 0.01	–	72	–
